Data on 84 compounds can be found in PubChem BioAssay AID1645866 (Buhrlage Lab, Dana-Farber Cancer Institute and Novartis …, 2021).

The source made the active and inactive calls.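 How the source made its calls: active means in confirmatory dose-response testing, peak deubiquitinase inhibition of 30% or more; inactive means the rest.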 Where only a bound is given, the exact number is not on record here.

The target of the test is Ubiquitin carboxyl-terminal hydrolase 28 (Homo sapiens) (UniProt Q96RU2). Briefly: Ubiquitin-specific peptidase 28 DUB inhibitors, biochemical concentration-dependence assay, validation of primary screening hits (AID 1645866). To be noted: purified USP28, ubiquitin-rhodamine fluorescence, 30 min.
Chain of Ubiquitin carboxyl-terminal hydrolase 28 (Homo sapiens) (Q96RU2 whole entry, looked up): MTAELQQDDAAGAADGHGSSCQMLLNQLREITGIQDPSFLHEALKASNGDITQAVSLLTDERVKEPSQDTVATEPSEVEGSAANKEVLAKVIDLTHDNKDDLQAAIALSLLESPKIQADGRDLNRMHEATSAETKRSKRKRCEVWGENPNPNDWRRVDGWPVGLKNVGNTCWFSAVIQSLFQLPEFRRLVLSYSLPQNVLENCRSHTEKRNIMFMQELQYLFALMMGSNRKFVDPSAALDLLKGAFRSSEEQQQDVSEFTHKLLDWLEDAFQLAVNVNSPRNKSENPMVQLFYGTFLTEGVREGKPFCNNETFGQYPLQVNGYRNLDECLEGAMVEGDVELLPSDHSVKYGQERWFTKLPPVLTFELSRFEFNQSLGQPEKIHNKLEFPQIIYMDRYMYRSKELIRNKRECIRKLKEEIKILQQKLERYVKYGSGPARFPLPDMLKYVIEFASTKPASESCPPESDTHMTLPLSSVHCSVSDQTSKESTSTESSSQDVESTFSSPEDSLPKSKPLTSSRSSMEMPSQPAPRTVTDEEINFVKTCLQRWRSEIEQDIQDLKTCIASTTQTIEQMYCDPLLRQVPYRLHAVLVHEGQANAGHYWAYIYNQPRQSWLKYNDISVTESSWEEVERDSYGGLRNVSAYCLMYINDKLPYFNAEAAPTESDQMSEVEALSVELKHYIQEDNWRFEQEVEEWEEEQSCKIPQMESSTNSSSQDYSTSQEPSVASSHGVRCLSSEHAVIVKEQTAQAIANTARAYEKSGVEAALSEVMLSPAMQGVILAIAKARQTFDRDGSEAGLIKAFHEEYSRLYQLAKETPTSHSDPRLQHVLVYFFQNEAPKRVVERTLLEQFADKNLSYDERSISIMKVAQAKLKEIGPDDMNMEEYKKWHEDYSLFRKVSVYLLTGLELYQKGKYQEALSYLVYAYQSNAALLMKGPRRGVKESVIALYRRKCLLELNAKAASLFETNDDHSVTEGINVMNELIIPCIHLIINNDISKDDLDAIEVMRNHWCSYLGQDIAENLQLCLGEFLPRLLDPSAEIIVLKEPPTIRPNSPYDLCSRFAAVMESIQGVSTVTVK
For the compound `CC(=O)N1CCCC(c2nc(C)cc(-c3cc(F)ccc3C(=O)O)n2)C1` (centres undefined), the IC50 is > 50 µM (inactive). The figure for `Cc1ccc(NC(=O)c2cc(=O)n(C)c3c2c(=O)n(C)c(=O)n3C)c(C)c1` is > 50 µM (inactive). The value for `O=C(c1cscn1)N1CCC2(CC1)CC1(CO2)Nc2ccccc2-n2cccc21` (centres undefined) was > 50 µM (inactive); that for `COc1ccc(-c2cc(C(=O)N3CCN(c4ccc([N+](=O)[O-])cc4)CC3)[nH]n2)cc1` was > 50 µM (inactive); that for `COc1cccc(Cn2nc3n(CC(C)C)c(=O)c4ccc(C(=O)NCC(C)C)cc4n3c2=O)c1` was 6.72 µM. The figure for `CCN(CC)C(=O)c1sc(NC(=O)/C=C/c2c(F)cccc2Cl)c(C#N)c1C` is 2.93 µM; for `CCOc1ccc(NC(=O)Cn2c(=O)n(CCC(=O)NCc3ccco3)c(=O)c3ccccc32)cc1` it is 4.44 µM.

Take `Cc1cc(C)n(-c2ccc(C(=O)Nc3cccc(S(=O)(=O)N4CCCC4)c3)cc2)n1`: the IC50 is 2.13 µM. Take `C=C(NC(=O)C(=C)NC(=O)c1csc(C2=N[C@@H]3c4csc(n4)[C@H]4NC(=O)c5csc(n5)[C@H]([C@](C)(O)[C@@H](C)O)NC(=O)C5CSC(=N5)/C(=C/C)NC(=O)C([C@@H](C)O)NC(=O)c5csc(n5)[C@]3(CC2)NC(=O)[C@H](C)NC(=O)C(=C)NC(=O)[C@H](C)NC(=O)C([C@@H](C)CC)NC2C=Cc3c(C(C)O)cc(nc3[C@H]2O)C(=O)OC4C)n1)C(N)=O` (some centres undefined): the IC50 was > 50 µM (inactive). The figure for `COc1ccc(C(=O)NCCc2nnc3ccc(SCC(=O)NCc4ccc(F)cc4)nn23)cc1` is 15.7 µM.

For `O=C(NCc1cccnc1)C1CCN(c2cnc(N3CCCCCC3)nc2)CC1`, the 50% inhibitory concentration (IC50) is 0.0687 µM. The value for `COc1ccc(CN(C(=O)c2cc(-c3ccc(C)cc3)on2)C2CCS(=O)(=O)C2)cc1` (centres undefined) was 38 µM. The figure for `CC12c3ccc4c(c3C(=O)c3occ(c31)C(=O)CC2O)CCC4=O` (centres undefined) is > 50 µM (inactive); for `CCOc1ccccc1C(=O)NCC(=O)OC(C(=O)c1c[nH]c2ccccc12)c1ccccc1` (centres undefined) it is > 50 µM (inactive). The figure for `c1ccc(CN2CCN(c3nc4ccccc4n4nnnc34)CC2)cc1` is > 50 µM (inactive). On to `Cc1cc(=O)c2c(O)oc(O)c3c(O)cc(=O)c1c32`, for which the IC50 was 22 µM. As for `CC(C)Cn1cc(OC(=O)c2ccc(F)cc2)c2c1nc(-c1ccc(F)cc1)n1c3ccccc3nc21`, the IC50 is > 50 µM (inactive). The figure for `COc1ccccc1NC(=O)c1cc(-c2ccccn2)nc2ccccc12` is 27.4 µM; for `O=C(COc1nsnc1N1CCOCC1)Nc1ccc(F)c(F)c1` it is > 50 µM (inactive).

As to `O=C(NC1CCS(=O)(=O)C1)c1ccc(N2CCC(Cc3ccccc3)CC2)nn1` (centres undefined), the IC50 is > 50 µM (inactive). The figure for `Cc1cc(NC(=O)c2nnn(-c3ccccc3Cl)c2C)no1` is 1.49 µM; for `O=C(Cc1ccc(Cl)c(Cl)c1)OCC(=O)c1c[nH]c2ccccc12` it is > 50 µM (inactive). The value for `Cc1cc(=O)n(CC(=O)NCc2ccccc2F)c2c1c(C)nn2-c1ccccc1` was 18.5 µM; that for `O=C(NCc1ccccc1)Nc1cccc2ccccc12` was 29.3 µM; that for `O=c1ccc(-c2noc(Cc3c(F)cccc3Cl)n2)c[nH]1` was 0.516 µM. Consider `N#C/C(=C\c1ccc(-c2cc(Cl)ccc2Cl)o1)c1nnc2n1CCCCC2`, for which the IC50 was > 50 µM (inactive). The value for `CCN(CC)C(=O)CN1CCCC(c2ncncc2-c2cc(C)no2)C1` (centres undefined) was > 50 µM (inactive). The figure for `Cc1cc(C)c(NC(=O)CSc2nc3nccnc3c(=O)n2Cc2ccccc2Cl)c(C)c1` is 3.33 µM; for `Nc1c(-c2ccc(Cl)cc2)cnc2cc(-c3ccc(Cl)c(Cl)c3)nn12` it is 3.28 µM; for `COc1ccc(CNC(=O)C(C)n2nc(-c3ccco3)c(-c3cc(C)no3)cc2=O)cc1` (centres undefined) it is 26.4 µM.

Regarding `O=C(NCc1ccc(F)cc1)C1CCN(c2cnc(N3CCCCC3)nc2)CC1`, the IC50 is 0.695 µM.

For `COc1ccc(C(=O)CSc2nnc(-c3cc4cccc(OC)c4o3)n2C)cc1OC`, the IC50 is > 50 µM (inactive).

`CN1CC2CN(C(=O)c3ccc(F)cc3)CCN2Cc2ccccc21` (centres undefined): the IC50 is > 50 µM (inactive).

In the case of `C[C@@H]1OC2=C(C(=O)c3cccc(O)c3C2=O)[C@H](O)[C@@H]1O`, the IC50 was 2.79 µM. The value for `CCc1nc(SCC(=O)Nc2ccccc2Cl)c2oc3ccccc3c2n1` was 0.37 µM. `Cc1cc(C)c(NC(=O)Cn2c(=O)n(CCC(=O)NCc3ccc4c(c3)OCO4)c(=O)c3sccc32)c(C)c1`: the IC50 is 2.67 µM.

Take `Cc1ccc(NCc2cc3c(C(C)(C)C)nn(-c4ccc(Cl)cc4)c3[nH]c2=O)cc1`: the IC50 was 23.6 µM. The figure for `Cc1ccc(NC(=O)c2ccc(Nc3nnc(C)c4ccccc34)cc2)cc1` is 6.02 µM. The value for `COc1ccc(Cn2c(=O)[nH]c3cc(C(=O)NCCCN4CCN(c5cccc(Cl)c5)CC4)ccc3c2=O)cc1` was 3.43 µM. For `CCOc1ccc(NC(=O)Cn2cc(C(=O)c3ccc(Cl)cc3)c(=O)c3cc(OC)ccc32)cc1`, the IC50 was 4.32 µM. The value for `O=C(NC1CCN(Cc2ccccc2)CC1)c1[nH]nc2c1COc1ccccc1-2` was 6.98 µM; that for `O=C(Nc1ccc(NS(=O)(=O)c2ccc3c4c(cccc24)CC3)cc1)c1ccccc1` was 37.7 µM; that for `Cn1c(C(=O)NCc2ccccn2)cc2c(=O)[nH]c3ccccc3c21` was > 50 µM (inactive). The figure for `O=C1CC(O)C(O)c2cccc(O)c21` (centres undefined) is 23.6 µM; for `Cc1cc(N2CCN(c3ncccn3)CC2)nc2ccc(NC(=O)c3ccncc3)cc12` it is 7.27 µM; for `COc1ccc2cc1Oc1cc(ccc1OC)C(O)C13SSC4(C(=O)N1C)C(O)C1=COC=CC(OC2=O)C1N4C3=O` (centres undefined) it is > 50 µM (inactive). The figure for `O=C(c1ccc2cc[nH]c2c1)N1CCC(Nc2cccnc2)C1` (centres undefined) is > 50 µM (inactive); for `CCOc1ccc(NC(=O)COc2cccc3c2CCN(CC)C3=O)cc1` it is 4.24 µM. With `Cc1ccc(S(=O)(=O)Nc2ccccc2SCCS(=O)(=O)c2ccc(Cl)cc2)cc1`, the IC50 is > 50 µM (inactive). The value for `Cc1ccccc1Cn1cc(SCC(=O)Nc2ccc3c(c2)OCCO3)c2ccccc21` was 4.81 µM. For the compound `CCn1cc(-c2nc(-c3ccccn3)no2)c(=O)c2cc(F)ccc21`, the IC50 was 26.5 µM. The figure for `COc1cc(OC)c2c(c1)C(=O)C1=C(COC(C)(O)C1)C2=O` (centres undefined) is > 50 µM (inactive). The value for `CCOc1ccc(NC(=O)CSc2nc3n[nH]c(C)c3c(=N)n2-c2ccc(OC)cc2)cc1` was 34 µM; that for `O=C(Cc1cc(-c2ccc(F)cc2)on1)NCc1ccccc1` was 22.1 µM; that for `O=C(O)c1nccnc1C(=O)N1CCc2ccccc2C1` was > 50 µM (inactive). In the case of `Cc1nn(Cc2ccccc2)c2sc(C(=O)Nc3nc4ccccc4[nH]3)cc12`, the IC50 is 20.8 µM. The figure for `N#Cc1cn(CC(=O)N2CCc3ccccc32)c2ccccc12` is 17.2 µM; for `CC(C)OC(=O)c1cc2c(ccn2C)n1CC(=O)N1CCN(C(=O)c2ccco2)CC1` it is > 50 µM (inactive); for `Cn1ccc2c(cc(C(=O)NCCC3=CCCCC3)n2C)c1=O` it is 21.1 µM. `COc1ccc(OC)c(NC(=O)CSc2nc(C)nc3c2oc2ccccc23)c1`: the IC50 was 8.65 µM. Turning to `COc1ccc(C(=O)CSc2ccc3nnc(CCNC(=O)c4ccc(OC)cc4)n3n2)cc1`, the IC50 is > 50 µM (inactive). The figure for `Cc1cccc(S(=O)(=O)N2CCc3nc4ccccc4n3CC2)c1` is 24.3 µM. For `CC1(C)C[C@@H](O)[C@]2(C)CC[C@]3(C)C(=CCC4[C@@]5(C)CC[C@H](O)[C@](C)(CO)[C@@H]5CC[C@]43C)[C@@H]2C1` (some centres undefined), the IC50 was > 50 µM (inactive).

Turning to `O=C1CC(c2ccco2)Cc2[nH]c(=O)c(-c3nc(-c4ccc(Cl)cc4)cs3)cc21` (centres undefined), the IC50 is > 50 µM (inactive). The figure for `CC(=O)N1CCOc2cc(S(=O)(=O)N3CCCC3c3cc(C)no3)ccc21` (centres undefined) is 22.9 µM; for `CC1=C[C@@H](C)CC[C@H]2O[C@@H](C3=C(O)C(=O)C(C)=C4O[C@](O)(C=C43)[C@@H](C)C[C@H](C)C1)[C@H](C)[C@@H](O)[C@H]2C` it is 19.5 µM; for `O=C(NCc1cccc(NC(=O)C2CC2)c1)Nc1cccc2ccccc12` it is 20.5 µM. The figure for `CCCc1nc2sc3c(NCCc4ccc(OC)c(OC)c4)ncnc3c2c2c1CCC2` is less than 0.05 µM; for `Cc1cc(-n2c(C)cc(-c3csc(N)n3)c2C)no1` it is > 50 µM (inactive). As for `Cc1ccc2c(c1)c(=O)c(C(=O)c1ccccc1)cn2CC(=O)Nc1ccc2c(c1)OCCO2`, the IC50 was 4.21 µM. With `FC(F)(F)c1ccccc1CCN1CCc2nc3ccc(Cl)cc3cc2C1`, the IC50 is > 50 µM (inactive).

Turning to `CS(=O)(=O)N1CCCN(c2nc3cc(Cl)ccc3n3cccc23)CC1`, the IC50 was > 50 µM (inactive). The figure for `CCC/C=C\C#CC/C=C\CCCCCCCC(=O)O` is 1.09 µM. In the case of `CS(=O)(=O)N1CCc2cc(C(=O)Nc3ccc(Cc4ccncc4)cc3)ccc21`, the IC50 was 8.75 µM. The value for `O=C(NCCCc1nc2ccccc2n1Cc1c(Cl)cccc1Cl)c1ccco1` was 25.3 µM; that for `O=C(Cn1ccc2ccc(N3CCOCC3)nc21)NCc1ccccc1F` was > 50 µM (inactive).

On to `O=C(Nc1cccc(OC(=O)c2ccc(Cl)cc2)c1)c1ccc(Cl)cc1`, for which the IC50 was 41.2 µM. The value for `NS(=O)(=O)c1ccc(CNS(=O)(=O)c2ccc(-c3ccccn3)s2)cc1` was 19.9 µM; that for `COc1cccc(NC(=O)C2CCN(C(=O)c3cc(-c4cccnc4)n[nH]3)CC2)c1` was 20.3 µM. On to `CCOc1ccccc1C(=O)Nc1ccc2c(c1)Sc1ncccc1C(=O)N2C`, for which the IC50 is 41.6 µM. The value for `O=C(NCc1cccnc1)c1cnn2c(C(F)(F)F)cc(-c3ccc(F)cc3)nc12` was 47.4 µM; that for `CN(C(=O)c1ccncc1)[C@H]1CC[C@@]2(C)C[C@H](c3ccccc3)C[C@](C)(O2)[C@@H]1O` was > 50 µM (inactive); that for `O=C(Nc1nnc2n1CCCS2)c1cc2ccccc2o1` was 4.43 µM. The figure for `COc1cc([C@@H]2c3cc4c(cc3C[C@@H]3COC(=O)[C@H]32)OCO4)cc(OC)c1OC` is 18.7 µM.

One may read the IC50 as the concentration that inhibits the measured activity by half.
